Patent US11440906B2, “Biguanide derivatives and their rearrangement products for use in the treatment of cancer” (CENTRE NATIONAL DE LA RECHERCHE SCIENTIFIQUE, priority 2017, dated 2022)
Like-named read-outs stand apart in the source and are kept apart here.

Test system: A375 Sensitive cells
Assay: Viability test, trypan blue exclusion, A375 Sensitive cells
Format: cell-based, human
Conditions: Homo sapiens, A-375; for viability at 5 µM / viability at 10 µM: viable cells as percentage of DMSO control
Excerpt: Different melanoma cell lines were purchased from the American Tissue Culture Collection: A375 and WM9 cells are mutated on B-Raf, CDKN2A and PTEN proteins; SKmel28 cells are mutated on B-Raf and P53 proteins; 1205Lu cells are mutated on B-Raf and PTEN proteins; G-361 cells are mutated on B-Raf and CDKN2A proteins; C8161 cells are mutated on B-Raf and K-Ras proteins; WM3912 cells are mutated on B-Raf and CDKN2A proteins; MeWo cells are mutated on P53 and CDKN2A proteins; WM3918 presents no mutations on characteristic proteins.
For trypan blue staining, […] of cells (melanoma and normal human cells) were aseptically transferred to a 1.5 mL clear Eppendorf tube and incubated for 3 min at room temperature with an equal volume of 0.4% trypan blue solution. Viable cells were counted and the results are expressed as the percentage of the value of control cells. All the experiments are performed 3 times in triplicate.
A375 Sensitive cells were treated with different concentrations of the synthesized molecules (5.0 μM or 10 μM) for different times (24 hr or 48 hr) or with DMSO (Control) for 12 or 48 hr. At the end of the stimulation, viable cells were counted using the trypan blue dye exclusion method. The results are normalized as percentages compare to the control.
A375 Sensitive cells were treated with 5 μM of CRO15 for different times (2 hr, 4 hr, 6 hr, 8 hr, 12 hr, 24 hr or 48 hr) or with 5 μM of PLX4032 (B-Raf inhibitor) for 48 hr or with DMSO (Control) for 48 hr. At the end of stimulation, viable cells were counted using the trypan blue dye exclusion method. The results are normalized as percentages compare to the control and data means±SEM of three independent experiments performed in triplicate *p<0.05; **p<0.01; ***p<0.001.
A375 Sensitive cells were treated with different concentrations of CRO15 (0.5 μM, 2.5 μM, 5.0 μM, 7.5 μM, 50 μM) for 48 hr or with 5 μM of PLX4032 (B-Raf inhibitor) for 48 hr or with DMSO (Control) for 48 hr. At the end of the stimulation, viable cells were counted using the trypan blue dye exclusion method. The results are normalized as percentages compare to the control and data means±SEM of three independent experiments performed in triplicate *p<0.05; **p<0.01; ***p<0.001.
A375 sensitive and resistant melanoma cells were treated with 5 μM of CRO15 for 48 hr or with 5 μM of PLX4032 for 48 hr or with DMSO (Control). At 48 hours, viable cells were counted using the trypan blue dye exclusion method. The results are normalized as percentages compare to the control and data means±SEM of three independent experiments performed in triplicate *p<0.05; **p<0.01; ***p<0.001.

[1] = 24 h, read-out: Viab A375 5 μM/ 24 h
[2] = 48 h, read-out: Viab A375 5 μM/ 48 h
[3] = 24 h, read-out: Viab A375 10 μM/ 24 h
[4] = 48 h, read-out: Viab A375 10 μM/ 48 h

## COc1ccc(Nc2nc(N)nc(C(Cl)(Cl)Cl)n2)c(SSc2cc(OC)ccc2Nc2nc(N)nc(C(Cl)(Cl)Cl)n2)c1 [MTF 232, N2,N2′-(disulfanediylbis(4-methoxy-2,1-phenylene))bis(6-(trichloromethyl)-1,3,5-triazine-2,4-diamine)]
[1]
  viability at 5 µM: 83.3%
[2]
  viability at 5 µM: 24.9%
[3]
  viability at 10 µM: 33.9%
[4]
  viability at 10 µM: 16.4 ± 4.9%

## Nc1nc(Nc2ccc(Cl)cc2SSc2cc(Cl)ccc2Nc2nc(N)nc(C(Cl)(Cl)Cl)n2)nc(C(Cl)(Cl)Cl)n1 [MTF 233, N2,N2′-(disulfanediylbis(4-chloro-2,1-phenylene))bis(6-(trichloromethyl)-1,3,5-triazine-2,4-diamine)]
[1]
  viability at 5 µM: 13.9%
[2]
  viability at 5 µM: 8.9%
[3]
  viability at 10 µM: 7%
[4]
  viability at 10 µM: 4.7%

## Nc1nc(Nc2ccc(F)cc2SSc2cc(F)ccc2Nc2nc(N)nc(C(Cl)(Cl)Cl)n2)nc(C(Cl)(Cl)Cl)n1 [MTF 234, N2,N2′-(disulfanediylbis(4-fluoro-2,1-phenylene))bis(6-(trichloromethyl)-1,3,5-triazine-2,4-diamine)]
[1]
  viability at 5 µM: 29.6%
[2]
  viability at 5 µM: 17.4%
[3]
  viability at 10 µM: 9.6%
[4]
  viability at 10 µM: 7.8%

## N=C(NC(=N)c1cccc(Br)c1)Nc1nc2ccccc2s1 [MTF 242, N—(N-(benzo[d]thiazol-2-yl)carbamimidoyl)-3-bromobenzimidamide]
[1]
  viability at 5 µM: 29.2%
[2]
  viability at 5 µM: 8.1%
[3]
  viability at 10 µM: 13.4%
[4]
  viability at 10 µM: 2.9%

## N=C(NC(=N)c1cccc(Cl)c1)Nc1nc2ccccc2s1 [MTF 243, N—(N-(benzo[d]thiazol-2-yl)carbamimidoyl)-3-chlorobenzimidamide]
[1]
  viability at 5 µM: 22.1%
[2]
  viability at 5 µM: 7%
[3]
  viability at 10 µM: 12.1%
[4]
  viability at 10 µM: 2.7%

## N=C(NC(=N)c1ccccc1Cl)Nc1nc2ccccc2s1 [MTF 244, N—(N-(benzo[d]thiazol-2-yl)carbamimidoyl)-2-chlorobenzimidamide]
[1]
  viability at 5 µM: 81.6%
[2]
  viability at 5 µM: 68%
[3]
  viability at 10 µM: 84.9%
[4]
  viability at 10 µM: 68.4%

## N=C(NC(=N)c1ccc(Cl)cc1)Nc1nc2ccccc2s1 [MTF 245, N—(N-(benzo[d]thiazol-2-yl)carbamimidoyl)-4-chlorobenzimidamide]
[1]
  viability at 5 µM: 95%
[2]
  viability at 5 µM: 100%
[3]
  viability at 10 µM: 83%
[4]
  viability at 10 µM: 79.6%

## Cc1ccc(C(=N)NC(=N)Nc2nc3ccccc3s2)cc1 [MTF 246, N—(N-(benzo[d]thiazol-2-yl)carbamimidoyl)-4-methylbenzimidamide]
[1]
  viability at 5 µM: 137%
[2]
  viability at 5 µM: 91%
[3]
  viability at 10 µM: 94%
[4]
  viability at 10 µM: 115%

## N=C(NC(=N)c1ccc(I)cc1)Nc1nc2ccccc2s1 [MTF 247, N—(N-(benzo[d]thiazol-2-yl)carbamimidoyl)-4-iodobenzimidamide]
[1]
  viability at 5 µM: 100%
[2]
  viability at 5 µM: 135%
[3]
  viability at 10 µM: 122%
[4]
  viability at 10 µM: 100%

## N=C(NC(=N)c1ccccc1)Nc1nc2ccccc2s1 [MTF 248, N—(N-(benzo[d]thiazol-2-yl)carbamimidoyl)benzimidamide]
[1]
  viability at 5 µM: 100%
[2]
  viability at 5 µM: 100%
[3]
  viability at 10 µM: 80%
[4]
  viability at 10 µM: 138%

## N=C(NC(=N)c1ccccc1F)Nc1nc2ccccc2s1 [MTF 249, N—(N-(benzo[d]thiazol-2-yl)carbamimidoyl)-2-fluorobenzimidamide]
[1]
  viability at 5 µM: 25.4%
[2]
  viability at 5 µM: 10.6%
[3]
  viability at 10 µM: 14.4%
[4]
  viability at 10 µM: 8.9%

## N=C(NC(=N)c1ccccc1Br)Nc1nc2ccccc2s1 [MTF 250, N—(N-(benzo[d]thiazol-2-yl)carbamimidoyl)-2-bromobenzimidamide]
[1]
  viability at 5 µM: 25.4%
[2]
  viability at 5 µM: 8.9%
[3]
  viability at 10 µM: 12%
[4]
  viability at 10 µM: 2.4%

## N=C(NC(=N)c1ccccn1)Nc1nc2ccccc2s1 [MTF 251, N—(N-(benzo[d]thiazol-2-yl)carbamimidoyl)picolinimidamide]
[1]
  viability at 5 µM: 48.9%
[2]
  viability at 5 µM: 44.7%
[3]
  viability at 10 µM: 45.1%
[4]
  viability at 10 µM: 19.5%

## N=C(NC(=N)c1cccnc1)Nc1nc2ccccc2s1 [MTF 252, N—(N-(benzo[d]thiazol-2-yl)carbamimidoyl)nicotinimidamide]
[1]
  viability at 5 µM: 8.6%
[2]
  viability at 5 µM: 5.2%
[3]
  viability at 10 µM: 12.9%
[4]
  viability at 10 µM: 2.6%

## N=C(NC(=N)c1ccncc1)Nc1nc2ccccc2s1 [MTF 253, N—(N-(benzo[d]thiazol-2-yl)carbamimidoyl)isonicotinimidamide]
[1]
  viability at 5 µM: 27.8%
[2]
  viability at 5 µM: 6.9%
[3]
  viability at 10 µM: 14.9%
[4]
  viability at 10 µM: 4.1%

## COc1ccc(C(=N)NC(=N)Nc2nc3ccccc3s2)cc1 [MTF 254, N—(N-(benzo[d]thiazol-2-yl)carbamimidoyl)-4-methoxybenzimidamide]
[1]
  viability at 5 µM: 100%
[2]
  viability at 5 µM: 100%
[3]
  viability at 10 µM: 100%
[4]
  viability at 10 µM: 100%

## CC(=O)c1cccc(C(=N)NC(=N)Nc2nc3ccccc3s2)c1 [MTF 255, 3-acetyl-N—(N-(benzo[d]thiazol-2-yl)carbamimidoyl)benzimidamide]
[1]
  viability at 5 µM: 26.1%
[2]
  viability at 5 µM: 4.7%
[3]
  viability at 10 µM: 3.2%
[4]
  viability at 10 µM: 3.8%
A375, printed in the 10 μM/24 h column of Table 1, read-out: IC50 (converted)
  IC50: 2300 nM

## N=C(NC(=N)c1cccc(Br)c1)Nc1nc(-c2ccccc2)cs1 [MTF 256, 3-bromo-N—(N-(4-phenylthiazol-2-yl)carbamimidoyl)benzimidamide]
[1]
  viability at 5 µM: 93.9%
[2]
  viability at 5 µM: 60%
[3]
  viability at 10 µM: 66%
[4]
  viability at 10 µM: 95.7%

## N=C(NC(=N)c1cccc(Br)c1)Nc1nc(-c2cccc([N+](=O)[O-])c2)cs1 [MTF 257, 3-bromo-N—(N-(4-(3-nitrophenyl)thiazol-2-yl)carbamimidoyl)benzimidamide]
[1]
  viability at 5 µM: 100%
[2]
  viability at 5 µM: 80.5%
[3]
  viability at 10 µM: 106%
[4]
  viability at 10 µM: 62%

## N=C(NC(=N)c1ccccn1)Nc1nc(-c2cccc([N+](=O)[O-])c2)cs1 [MTF 259, N—(N-(4-(3-nitrophenyl)thiazol-2-yl)carbamimidoyl)picolinimidamide]
[1]
  viability at 5 µM: 157%
[2]
  viability at 5 µM: 95.7%
[3]
  viability at 10 µM: 98%
[4]
  viability at 10 µM: 96.5%

## N=C(NC(=N)c1cccnc1)Nc1nc(-c2cccc([N+](=O)[O-])c2)cs1 [MTF 260, N—(N-(4-(3-nitrophenyl)thiazol-2-yl)carbamimidoyl)nicotinimidamide]
[1]
  viability at 5 µM: 57%
[2]
  viability at 5 µM: 32%
[3]
  viability at 10 µM: 76.7%
[4]
  viability at 10 µM: 78%

## N=C(NC(=N)c1ccncc1)Nc1nc(-c2cccc([N+](=O)[O-])c2)cs1 [MTF 261, N—(N-(4-(3-nitrophenyl)thiazol-2-yl)carbamimidoyl)isonicotinimidamide]
[1]
  viability at 5 µM: 24.6%
[2]
  viability at 5 µM: 63.6%
[3]
  viability at 10 µM: 71.9%
[4]
  viability at 10 µM: 115%

## COc1ccc(C(=N)NC(=N)Nc2nc(-c3ccccc3)cs2)cc1 [MTF 262, 4-methoxy-N—(N-(4-phenylthiazol-2-yl)carbamimidoyl)benzimidamide]
[1]
  viability at 5 µM: 61.4%
[2]
  viability at 5 µM: 43.7%
[3]
  viability at 10 µM: 40.8%
[4]
  viability at 10 µM: 27.3%

## N=C(NC(=N)c1ccccn1)Nc1nc(-c2ccccc2)cs1 [MTF 263, N—(N-(4-phenylthiazol-2-yl)carbamimidoyl)picolinimidamide]
[1]
  viability at 5 µM: 89.5%
[2]
  viability at 5 µM: 91%
[3]
  viability at 10 µM: 100%
[4]
  viability at 10 µM: 66%

## COc1ccc2nc(NC(=N)NC(=N)c3cccc(Br)c3)sc2c1 [MTF 264, 3-bromo-N—(N-(6-methoxybenzo[d]thiazol-2-yl)carbamimidoyl)benzimidamide]
[1]
  viability at 5 µM: 87%
[3]
  viability at 10 µM: 89%
[4]
  viability at 10 µM: 99%
